In one assay the test system is imidazoline I1 receptor. As to conditions: literature, Ernsberger et al Eur. J. Pharmacol. 134, 1, 1987; cited from earlier work.
The target in another assay is NHE2 (Rattus norvegicus, UniProt P48763). As to conditions: read-out: IC50 for NHE2; literature value, J. Orlowski et al; cited from earlier work.
In a further assay the test system is adrenergic α2 receptor. As to conditions: literature, Ernsberger et al Eur. J. Pharmacol. 134, 1, 1987; cited from earlier work.
The target of the next assay is T1, rNHE3 (Rattus norvegicus, UniProt P26433).
T1 construct: expressed in transfected cells; host or cells: LAP 1 cells (fibroblasts)
T1 sequence (P26433 29-831): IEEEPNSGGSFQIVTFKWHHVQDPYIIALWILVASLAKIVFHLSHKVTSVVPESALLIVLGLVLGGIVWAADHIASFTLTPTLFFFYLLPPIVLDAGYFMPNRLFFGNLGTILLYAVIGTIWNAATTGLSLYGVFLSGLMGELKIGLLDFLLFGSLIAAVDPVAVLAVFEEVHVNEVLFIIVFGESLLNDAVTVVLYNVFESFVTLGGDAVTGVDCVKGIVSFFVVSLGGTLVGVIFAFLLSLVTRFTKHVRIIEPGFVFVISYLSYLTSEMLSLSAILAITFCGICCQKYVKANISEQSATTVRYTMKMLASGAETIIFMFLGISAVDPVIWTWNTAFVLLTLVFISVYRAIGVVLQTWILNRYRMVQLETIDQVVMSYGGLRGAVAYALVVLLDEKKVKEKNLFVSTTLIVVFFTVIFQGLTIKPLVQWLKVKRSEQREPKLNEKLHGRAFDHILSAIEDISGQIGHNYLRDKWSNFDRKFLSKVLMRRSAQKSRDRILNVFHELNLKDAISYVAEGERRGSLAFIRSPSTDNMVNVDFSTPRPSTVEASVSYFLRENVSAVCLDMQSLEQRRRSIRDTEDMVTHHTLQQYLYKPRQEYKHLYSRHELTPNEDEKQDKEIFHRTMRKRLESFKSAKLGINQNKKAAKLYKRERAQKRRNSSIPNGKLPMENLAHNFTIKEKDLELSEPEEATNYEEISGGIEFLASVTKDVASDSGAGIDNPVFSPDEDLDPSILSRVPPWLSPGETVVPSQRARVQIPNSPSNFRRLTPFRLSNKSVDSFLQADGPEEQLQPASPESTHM
In words: Recovery of intracellular pH (pHi) after acidification, BCECF fluorescence, in fibroblasts (LAP 1 cells). The format is cell-based. Particulars: pH recovery in LAP 1 fibroblasts. Here is the method: In this test, the recovery in the intracellular pH (pHi) after an acidification was ascertained, which is initiated if the NHE3 is capable of functioning, even under bicarbonate-free conditions. For this purpose, the pHi was determined using the pH-sensitive fluorescent dye BCECF (Calbiochem, the precursor BCECF-AM is employed). The cells (fibroblasts, LAP 1 cells) were initially loaded with BCECF. The BCECF fluorescence was determined in a “Ratio Fluorescence Spectrometer” (Photon Technology International, South Brunswick, N.J., USA) at excitation wavelengths of 505 and 440 nm and an emission wavelength of 535 nm and converted into the pHi using calibration curves. The cells were incubated in NH4Cl buffer (pH 7.4) (NH4Cl buffer: 115 mM NaCl, 20 mM NH4Cl, 5 mM KCl, 1 mM CaCl2, 1 mM MgSO4, 20 mM Hepes, 5 mM glucose, 1 mg/ml BSA; a pH of 7.4 is adjusted with 1 M NaOH) even during the BCECF loading. The intracellular acidification was induced by adding 975 μl of an NH4Cl-free buffer (see below) to 25 μl aliquots of the cells incubated in NH4Cl buffer. The subsequent rate of pH recovery was recorded for three minutes. To calculate the inhibitory potency of the tested substances, the cells were initially investigated in buffers with which a complete or absolutely no pH recovery took place. For complete pH recovery (100%), the cells were incubated in Na^+-containing buffer (133.8 mM NaCl, 4.7 mM KCl, 1.25 mM CaCl2, 1.25 mM MgCl2, 0.97 mM Na2HPO4, 0.23 mM NaH2PO4, 5 mM Hepes, 5 mM glucose, a pH of 7.0 is adjusted with 1 M NaOH). To determine the 0% value, the cells were incubated in an Na^+-free buffer (133.8 mM choline chloride, 4.7 mM KCl, 1.25 mM CaCl2, 1.25 mM MgCl2, 0.97 mM K2HPO4, 0.23 mM KH2PO4, 5 mM Hepes, 5 mM glucose, a pH of 7.0 is adjusted with 1 M KOH). The substances to be tested were made up in the Na^+-containing buffer. The recovery of the intracellular pH at each test concentration of a substance was expressed as a percentage of the maximum recovery. The IC50 value for the particular substance for the individual NHE subtypes was calculated from the pH recovery percentages using the Sigma-Plot program.

The next assay addresses NHE3 (Oryctolagus cuniculus, UniProt P26432). As to conditions: literature, M. Donowitz et al. Am. J. Physiol. 276; cited from earlier work.

Counter-ions that a name gives are not always drawn.

Sequence of NHE2 (P48763 whole entry): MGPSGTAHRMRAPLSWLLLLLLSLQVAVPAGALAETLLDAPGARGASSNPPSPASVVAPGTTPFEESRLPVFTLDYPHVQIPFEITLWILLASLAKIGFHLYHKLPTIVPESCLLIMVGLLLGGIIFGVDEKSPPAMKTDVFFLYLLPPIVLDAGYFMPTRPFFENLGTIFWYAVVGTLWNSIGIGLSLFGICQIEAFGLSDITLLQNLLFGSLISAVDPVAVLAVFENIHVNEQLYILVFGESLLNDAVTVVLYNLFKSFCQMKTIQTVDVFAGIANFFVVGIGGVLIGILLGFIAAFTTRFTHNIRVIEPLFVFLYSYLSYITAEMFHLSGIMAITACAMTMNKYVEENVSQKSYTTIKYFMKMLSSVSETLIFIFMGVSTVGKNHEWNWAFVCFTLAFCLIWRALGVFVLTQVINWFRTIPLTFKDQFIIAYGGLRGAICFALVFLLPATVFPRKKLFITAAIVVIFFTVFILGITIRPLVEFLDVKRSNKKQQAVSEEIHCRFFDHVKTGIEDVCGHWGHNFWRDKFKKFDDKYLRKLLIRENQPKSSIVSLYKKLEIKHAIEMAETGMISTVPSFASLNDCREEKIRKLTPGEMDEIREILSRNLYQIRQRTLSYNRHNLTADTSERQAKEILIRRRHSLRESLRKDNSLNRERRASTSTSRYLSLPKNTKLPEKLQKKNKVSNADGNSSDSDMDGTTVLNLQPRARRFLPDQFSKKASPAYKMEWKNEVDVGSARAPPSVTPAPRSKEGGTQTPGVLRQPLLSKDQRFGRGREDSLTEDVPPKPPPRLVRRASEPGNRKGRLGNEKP
Sequence of NHE3 (P26432 30-832): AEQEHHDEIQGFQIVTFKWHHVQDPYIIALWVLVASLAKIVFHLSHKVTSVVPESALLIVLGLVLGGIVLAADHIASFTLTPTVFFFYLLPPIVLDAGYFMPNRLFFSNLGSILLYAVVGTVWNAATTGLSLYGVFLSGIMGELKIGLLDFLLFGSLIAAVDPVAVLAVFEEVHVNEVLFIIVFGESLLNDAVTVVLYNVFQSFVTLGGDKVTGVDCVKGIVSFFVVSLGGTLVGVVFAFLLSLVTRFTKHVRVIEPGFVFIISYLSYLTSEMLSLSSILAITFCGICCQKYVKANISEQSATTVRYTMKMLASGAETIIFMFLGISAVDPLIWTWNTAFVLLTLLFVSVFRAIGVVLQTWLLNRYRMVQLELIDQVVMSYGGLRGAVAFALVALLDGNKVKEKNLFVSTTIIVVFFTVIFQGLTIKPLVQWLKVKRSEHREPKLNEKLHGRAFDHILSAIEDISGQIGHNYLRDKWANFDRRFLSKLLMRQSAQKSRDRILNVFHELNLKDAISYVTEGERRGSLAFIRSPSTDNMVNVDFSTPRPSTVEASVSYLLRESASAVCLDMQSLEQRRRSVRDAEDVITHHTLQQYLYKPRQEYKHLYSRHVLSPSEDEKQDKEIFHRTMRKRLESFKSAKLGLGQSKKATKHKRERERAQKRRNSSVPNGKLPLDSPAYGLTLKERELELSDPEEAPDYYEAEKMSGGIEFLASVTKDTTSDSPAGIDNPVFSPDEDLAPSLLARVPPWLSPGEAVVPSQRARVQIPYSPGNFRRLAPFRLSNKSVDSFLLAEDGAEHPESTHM

As for `Clc1cccc(Cl)c1N=C1NCCN1` [Clonidine], the “affinity for the imidazoline I1 receptor” value in the assay with imidazoline I1 receptor is “high affinity”. Further, the IC50 on NHE2 was 42000 nM. Also, the “affinity for the adrenergic α2 receptor” value in the assay on adrenergic α2 receptor was “high affinity”.
At rNHE3, `Cc1c[nH]c(Nc2c(Cl)cccc2Cl)n1` [Example 2, (2,6-Dichlorophenyl)(4-methyl-1H-imidazol-2-yl)amine hydrochloride] yielded a 50% inhibitory concentration (IC50) of 1.7 µM.
The same measure, in the same setting: in the case of `Clc1cccc(Cl)c1Nc1ncc[nH]1` [Example 1, (2,6-Dichlorophenyl)(1H-imidazol-2-yl)amine hydrochloride] it was 7.7 µM; in that of `N#Cc1nc(Nc2c(Cl)cccc2Cl)[nH]c1C#N` [Example 6, 2-(2,6-Dichlorophenylamino)-1H-imidazole-4,5-dicarbonitrile], 98 µM; in that of `CN(c1nc2c([nH]1)CCCC2)c1c(Cl)cccc1Cl` [Example 7, hydrochloride], 0.28 µM.
Still for that read-out and setting: next, `Cc1nc(Nc2c(Cl)cccc2Cl)[nH]c1C` [Example 3, (2,6-Dichlorophenyl)(4,5-dimethyl-1H-imidazol-2-yl)amine hydrochloride]: 0.84 µM.
`CC(C)[C@@H](CC[C@@H](C)[C@H]1CC[C@H]2[C@@H]3[C@H](O)C[C@H]4C[C@@H](NCCCNCCCCN)CC[C@]4(C)[C@H]3CC[C@]12C)OS(=O)(=O)O` [Squalamine]: the “time to maximum strength of NHE3-inhibiting effect” value at NHE3 was “only after one hour”.
As for `Clc1cccc(Cl)c1Nc1nc2c([nH]1)CCCC2` [Example 5, (2,6-Dichlorophenyl)(4,5,6,7-tetrahydro-1H-benzoimidazol-2-yl)amine hydrochloride], at rNHE3, the IC50 is 0.24 µM.

Usually IC50 stands for the concentration that inhibits the measured activity by half.
